What was measured:
Test in all cases: KINOMEscan competition binding
Conditions in all cases: compound 10.0 µM
[1] = target: PTK2 (human) (UniProt Q05397)
[2] = target: MAPK7 (human) (UniProt Q13164)
[3] = target: CDC42BPB (human) (UniProt Q9Y5S2)
[4] = target: PRKG1 (human) (UniProt Q13976)
[5] = target: MAPKAPK2 (human) (UniProt P49137)
[6] = target: PAK4 (human) (UniProt O96013)
[7] = target: AAK1 (human) (UniProt Q2M2I8)
[8] = target: PIM2 (human) (UniProt Q9P1W9)
[9] = target: MAPK14 (human) (UniProt Q16539)
[10] = target: TGFBR1 (human) (UniProt P36897)
[11] = target: CSNK1D (human) (UniProt P48730)
[12] = target: ACVR1 (human) (UniProt Q04771)
[13] = target: MAP3K4 (human) (UniProt Q9Y6R4)
[14] = target: CAMKK1 (human) (UniProt Q8N5S9)
[15] = target: CLK2 (human) (UniProt P49760)
CLK2 (human), sequence (P49760 whole entry, looked up): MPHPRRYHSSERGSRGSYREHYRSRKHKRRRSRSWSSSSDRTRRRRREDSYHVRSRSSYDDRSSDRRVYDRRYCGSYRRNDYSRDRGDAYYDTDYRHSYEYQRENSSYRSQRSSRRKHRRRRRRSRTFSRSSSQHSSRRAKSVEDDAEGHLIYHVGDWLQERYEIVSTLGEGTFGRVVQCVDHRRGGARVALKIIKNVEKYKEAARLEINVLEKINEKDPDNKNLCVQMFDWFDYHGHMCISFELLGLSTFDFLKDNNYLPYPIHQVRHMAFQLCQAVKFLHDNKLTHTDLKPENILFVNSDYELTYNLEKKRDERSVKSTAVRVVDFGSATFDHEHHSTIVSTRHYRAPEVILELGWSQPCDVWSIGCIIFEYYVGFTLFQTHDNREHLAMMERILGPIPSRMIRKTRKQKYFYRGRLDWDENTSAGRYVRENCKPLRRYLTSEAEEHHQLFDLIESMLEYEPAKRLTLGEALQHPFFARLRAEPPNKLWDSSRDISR

[16] = target: ACVR1B (human) (UniProt P36896)
ACVR1B (human), sequence (P36896 whole entry, looked up): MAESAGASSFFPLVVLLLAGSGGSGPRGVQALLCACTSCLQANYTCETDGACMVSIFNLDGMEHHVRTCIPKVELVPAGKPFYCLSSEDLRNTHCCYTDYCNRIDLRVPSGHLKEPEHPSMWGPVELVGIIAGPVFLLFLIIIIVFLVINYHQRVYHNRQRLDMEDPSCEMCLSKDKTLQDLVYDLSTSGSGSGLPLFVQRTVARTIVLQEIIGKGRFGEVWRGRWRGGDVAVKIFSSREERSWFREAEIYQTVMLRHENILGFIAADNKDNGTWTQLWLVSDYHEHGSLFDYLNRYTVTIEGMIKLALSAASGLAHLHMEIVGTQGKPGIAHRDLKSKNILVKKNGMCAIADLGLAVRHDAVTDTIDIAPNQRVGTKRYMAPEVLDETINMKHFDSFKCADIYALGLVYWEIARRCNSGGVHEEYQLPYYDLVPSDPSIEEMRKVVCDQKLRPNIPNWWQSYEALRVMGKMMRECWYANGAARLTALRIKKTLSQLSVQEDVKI

[17] = target: PLK3 (human) (UniProt Q9H4B4)
PLK3 (human), sequence (Q9H4B4 whole entry, looked up): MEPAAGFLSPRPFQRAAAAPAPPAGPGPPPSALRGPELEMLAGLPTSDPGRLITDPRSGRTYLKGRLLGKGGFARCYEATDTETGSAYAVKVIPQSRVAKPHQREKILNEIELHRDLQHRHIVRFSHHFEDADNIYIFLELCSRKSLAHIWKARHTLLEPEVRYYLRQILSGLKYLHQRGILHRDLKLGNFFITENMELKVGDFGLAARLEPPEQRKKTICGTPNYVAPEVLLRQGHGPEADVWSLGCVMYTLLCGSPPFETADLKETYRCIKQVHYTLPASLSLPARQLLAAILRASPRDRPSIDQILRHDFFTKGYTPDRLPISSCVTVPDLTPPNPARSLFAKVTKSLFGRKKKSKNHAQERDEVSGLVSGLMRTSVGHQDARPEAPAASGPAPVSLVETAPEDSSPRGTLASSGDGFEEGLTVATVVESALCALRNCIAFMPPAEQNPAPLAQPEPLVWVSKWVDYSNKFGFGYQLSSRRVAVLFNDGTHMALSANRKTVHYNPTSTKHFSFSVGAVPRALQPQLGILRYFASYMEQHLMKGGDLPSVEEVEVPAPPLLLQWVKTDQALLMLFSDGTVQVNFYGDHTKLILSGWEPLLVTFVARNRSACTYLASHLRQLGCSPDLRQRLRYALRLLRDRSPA

[18] = target: PRKD2 (human) (UniProt Q9BZL6)
PRKD2 (human), sequence (Q9BZL6 whole entry, looked up): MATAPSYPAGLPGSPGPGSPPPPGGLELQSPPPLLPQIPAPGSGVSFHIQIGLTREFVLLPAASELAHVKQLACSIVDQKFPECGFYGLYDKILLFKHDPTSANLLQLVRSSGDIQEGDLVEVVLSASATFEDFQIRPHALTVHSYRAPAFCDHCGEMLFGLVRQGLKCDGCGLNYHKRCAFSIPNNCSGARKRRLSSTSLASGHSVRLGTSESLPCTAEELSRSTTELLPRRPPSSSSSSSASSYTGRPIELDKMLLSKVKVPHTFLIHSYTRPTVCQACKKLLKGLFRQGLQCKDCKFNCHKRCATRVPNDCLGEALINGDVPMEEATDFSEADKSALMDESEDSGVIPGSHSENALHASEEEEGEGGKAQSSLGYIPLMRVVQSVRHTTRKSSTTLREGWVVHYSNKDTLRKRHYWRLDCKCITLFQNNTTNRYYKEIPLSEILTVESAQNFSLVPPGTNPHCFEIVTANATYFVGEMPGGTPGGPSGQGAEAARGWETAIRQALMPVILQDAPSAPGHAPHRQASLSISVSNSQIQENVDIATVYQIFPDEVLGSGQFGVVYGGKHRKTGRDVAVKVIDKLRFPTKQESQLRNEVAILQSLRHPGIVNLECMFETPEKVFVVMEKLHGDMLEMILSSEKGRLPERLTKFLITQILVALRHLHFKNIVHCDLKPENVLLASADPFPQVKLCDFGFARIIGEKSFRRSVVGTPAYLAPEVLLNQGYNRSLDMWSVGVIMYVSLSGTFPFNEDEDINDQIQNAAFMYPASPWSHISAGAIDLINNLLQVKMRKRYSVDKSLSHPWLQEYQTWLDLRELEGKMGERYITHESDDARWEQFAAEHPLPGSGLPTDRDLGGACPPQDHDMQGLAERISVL

[19] = target: PDPK1 (human) (UniProt O15530)
[20] = target: RPS6KA4 KD1 (human) (UniProt O75676)
[21] = target: PLK4 (human) (UniProt O00444)
[22] = target: TLK2 (human) (UniProt Q86UE8)
[23] = target: CDC42BPG (human) (UniProt Q6DT37)
[24] = target: MAP4K2 (human) (UniProt Q12851)
[25] = target: FGFR1 (human) (UniProt P11362)
[26] = target: ULK3 (human) (UniProt Q6PHR2)
[27] = target: PKN1 (human) (UniProt Q16512)
PKN1 (human), sequence (Q16512 whole entry, looked up): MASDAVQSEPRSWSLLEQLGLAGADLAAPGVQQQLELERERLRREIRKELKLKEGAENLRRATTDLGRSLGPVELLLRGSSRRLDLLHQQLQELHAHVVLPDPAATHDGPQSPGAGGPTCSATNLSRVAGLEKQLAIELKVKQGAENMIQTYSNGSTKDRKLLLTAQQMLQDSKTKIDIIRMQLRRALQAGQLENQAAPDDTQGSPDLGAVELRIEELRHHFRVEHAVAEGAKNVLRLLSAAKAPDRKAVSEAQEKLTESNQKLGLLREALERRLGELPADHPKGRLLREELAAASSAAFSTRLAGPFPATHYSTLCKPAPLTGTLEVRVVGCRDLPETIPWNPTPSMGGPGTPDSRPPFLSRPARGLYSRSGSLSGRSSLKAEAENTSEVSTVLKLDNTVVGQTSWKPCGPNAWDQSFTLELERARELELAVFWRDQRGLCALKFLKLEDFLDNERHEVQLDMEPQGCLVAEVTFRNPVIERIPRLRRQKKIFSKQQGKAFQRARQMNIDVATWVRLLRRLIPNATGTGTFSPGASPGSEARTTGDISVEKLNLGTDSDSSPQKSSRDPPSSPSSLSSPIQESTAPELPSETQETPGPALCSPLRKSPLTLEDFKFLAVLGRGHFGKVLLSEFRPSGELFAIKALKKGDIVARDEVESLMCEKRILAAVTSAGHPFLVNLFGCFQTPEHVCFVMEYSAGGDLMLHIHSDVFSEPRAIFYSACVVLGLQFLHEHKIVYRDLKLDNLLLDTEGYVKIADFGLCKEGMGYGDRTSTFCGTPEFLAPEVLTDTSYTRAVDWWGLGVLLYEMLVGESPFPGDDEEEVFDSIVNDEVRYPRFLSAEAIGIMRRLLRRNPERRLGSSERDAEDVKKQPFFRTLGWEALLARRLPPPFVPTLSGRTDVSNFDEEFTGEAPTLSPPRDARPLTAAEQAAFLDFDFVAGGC

[28] = target: RPS6KA2 KD1 (human) (UniProt Q15349)
[29] = target: EPHA2 (human) (UniProt P29317)
EPHA2 (human), sequence (P29317 whole entry, looked up): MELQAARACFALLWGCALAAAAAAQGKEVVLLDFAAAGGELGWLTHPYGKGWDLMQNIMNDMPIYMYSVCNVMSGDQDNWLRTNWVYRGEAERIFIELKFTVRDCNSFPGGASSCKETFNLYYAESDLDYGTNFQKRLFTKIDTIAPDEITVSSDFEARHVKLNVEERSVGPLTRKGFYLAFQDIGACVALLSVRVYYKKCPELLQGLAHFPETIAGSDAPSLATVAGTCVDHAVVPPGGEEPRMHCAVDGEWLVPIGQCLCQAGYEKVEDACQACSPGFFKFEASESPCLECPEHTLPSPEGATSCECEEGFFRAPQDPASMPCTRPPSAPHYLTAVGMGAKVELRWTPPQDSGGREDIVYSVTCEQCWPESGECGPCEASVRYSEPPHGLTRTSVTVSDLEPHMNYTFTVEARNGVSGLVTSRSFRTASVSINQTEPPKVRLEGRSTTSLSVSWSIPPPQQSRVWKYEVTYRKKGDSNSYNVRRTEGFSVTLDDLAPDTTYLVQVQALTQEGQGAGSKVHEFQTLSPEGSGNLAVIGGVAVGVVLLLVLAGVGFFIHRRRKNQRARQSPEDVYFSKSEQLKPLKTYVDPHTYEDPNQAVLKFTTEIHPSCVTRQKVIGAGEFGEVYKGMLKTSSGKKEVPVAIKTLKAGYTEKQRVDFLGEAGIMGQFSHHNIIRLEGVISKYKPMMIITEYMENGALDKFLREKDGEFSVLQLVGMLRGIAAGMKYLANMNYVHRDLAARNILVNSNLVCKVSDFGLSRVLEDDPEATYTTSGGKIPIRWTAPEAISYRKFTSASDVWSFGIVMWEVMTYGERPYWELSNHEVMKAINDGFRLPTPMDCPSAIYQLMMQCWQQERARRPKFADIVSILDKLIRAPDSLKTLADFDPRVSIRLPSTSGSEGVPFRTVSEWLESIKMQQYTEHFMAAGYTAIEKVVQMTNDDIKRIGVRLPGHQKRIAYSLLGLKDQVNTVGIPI

[30] = target: STK32B (human) (UniProt Q9NY57)
[31] = target: MAP4K5 (human) (UniProt Q9Y4K4)
[32] = target: RPS6KA2 KD2 (human) (UniProt Q15349)
[33] = target: SRPK1 (human) (UniProt Q96SB4)
[34] = target: FGFR3 (human) (UniProt P22607)
[35] = target: ERBB4 (human) (UniProt Q15303)
[36] = target: NLK (human) (UniProt Q9UBE8)
NLK (human), sequence (Q9UBE8 whole entry, looked up): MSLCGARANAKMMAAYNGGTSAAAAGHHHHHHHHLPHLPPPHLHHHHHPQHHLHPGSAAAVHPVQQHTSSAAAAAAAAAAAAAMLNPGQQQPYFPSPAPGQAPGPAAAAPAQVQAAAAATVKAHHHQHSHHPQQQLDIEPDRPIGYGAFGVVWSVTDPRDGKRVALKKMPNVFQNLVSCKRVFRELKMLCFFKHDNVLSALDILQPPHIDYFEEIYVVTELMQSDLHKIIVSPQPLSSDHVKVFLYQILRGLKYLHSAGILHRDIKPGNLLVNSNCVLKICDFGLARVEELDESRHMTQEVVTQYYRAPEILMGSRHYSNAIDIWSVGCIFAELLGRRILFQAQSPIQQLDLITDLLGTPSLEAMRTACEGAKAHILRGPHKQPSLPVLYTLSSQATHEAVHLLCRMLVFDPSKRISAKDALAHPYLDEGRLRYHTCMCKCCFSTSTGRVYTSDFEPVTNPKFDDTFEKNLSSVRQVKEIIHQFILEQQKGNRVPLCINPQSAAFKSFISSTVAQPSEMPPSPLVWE

[37] = target: CSK (human) (UniProt P41240)
[38] = target: ERBB2 (human) (UniProt P04626)
[39] = target: EPHA6 (human) (UniProt Q9UF33)
[40] = target: PKN2 (human) (UniProt Q16513)

SMILES: Cc1ccc2nc(NCCN)c3ncc(C)n3c2c1
- kinase still bound, per cent of control [1]: 97%
- kinase still bound, per cent of control [2]: 0.7%
- kinase still bound, per cent of control [3]: 100%
- kinase still bound, per cent of control [4]: 100%
- kinase still bound, per cent of control [5]: 100%
- kinase still bound, per cent of control [6]: 100%
- kinase still bound, per cent of control [7]: 78%
- kinase still bound, per cent of control [8]: 100%
- kinase still bound, per cent of control [9]: 98%
- kinase still bound, per cent of control [10]: 100%
- kinase still bound, per cent of control [11]: 45%
- kinase still bound, per cent of control [12]: 100%
- kinase still bound, per cent of control [13]: 100%
- kinase still bound, per cent of control [14]: 100%
- kinase still bound, per cent of control [15]: 54%
- kinase still bound, per cent of control [16]: 97%
- kinase still bound, per cent of control [17]: 94%
- kinase still bound, per cent of control [18]: 72%
- kinase still bound, per cent of control [19]: 100%
- kinase still bound, per cent of control [20]: 100%
- kinase still bound, per cent of control [21]: 90%
- kinase still bound, per cent of control [22]: 88%
- kinase still bound, per cent of control [23]: 94%
- kinase still bound, per cent of control [24]: 92%
- kinase still bound, per cent of control [25]: 100%
- kinase still bound, per cent of control [26]: 76%
- kinase still bound, per cent of control [27]: 92%
- kinase still bound, per cent of control [28]: 100%
- kinase still bound, per cent of control [29]: 93%
- kinase still bound, per cent of control [30]: 100%
- kinase still bound, per cent of control [31]: 96%
- kinase still bound, per cent of control [32]: 97%
- kinase still bound, per cent of control [33]: 100%
- kinase still bound, per cent of control [34]: 99%
- kinase still bound, per cent of control [35]: 100%
- kinase still bound, per cent of control [36]: 100%
- kinase still bound, per cent of control [37]: 100%
- kinase still bound, per cent of control [38]: 100%
- kinase still bound, per cent of control [39]: 100%
- kinase still bound, per cent of control [40]: 71%

From the kinase profiling compilation of Christmann-Franck et al. (2016)
